Entries after “also recorded” stand apart in the source; their conditions may differ.

The IC50 is the concentration that gives 50% inhibition.

One assay deals with Mtb-infected macrophages. The assay is described as follows: Macrophage assay, growth of M. tuberculosis in IFN-γ activated J774 macrophages. Format: cell-based, Mycobacterium tuberculosis. As to conditions: J774A.1 macrophages.
Another assay concerns M. tuberculosis H37Rv. Description: Microplate Alamar Blue assay (MABA) MIC, H37Rv. Format: cell-based, Mycobacterium tuberculosis. A general note: Alamar Blue is a resazurin reagent that responds to reducing activity.
The subject of assay [1] is EGF-mediated ERK1/2 phosphorylation. The assay is described as follows: EGF-mediated ERK1/2 phosphorylation, immunoblot, H1975 cells. The conditions noted are these: compound 7 at 40 μM. Format: cell-based, human. Here is the method:
Cell proliferation and immunoblot analysis. Human non-small cell lung carcinoma cell line H1975 was cultured at 37° C. and 5% CO2 in RPMI-1640 (Corning) supplemented with 10% fetal bovine serum (HyClone). Human breast cancer cell line MDA-MB-231 was cultured in DMEM supplemented with 10% fetal bovine serum. For cell proliferation assay, 2˜3×10^3 cells were seeded in each well of 96-well plates. After treating cells with compounds for 2 days, cells were incubated with 50 µg/ml MTT (3-(4,5-Dimethylthiazol-2-yl)-2,5-diphenyltetrazolium bromide) for ˜3-4 hours. Then, the culture medium was removed, DMSO was added to dissolve the formazan crystals. Wells containing only media were used for background correction. The optical density was measured spectrophotometrically at 540 nm. For signaling analysis, cells were serum-starved overnight followed by treatment with vehicle or compounds for 3 hours, and then either left un-stimulated or stimulated with 5 μg/ml EGF or 10 nM PMA (Sigma) for indicated time. Cells were lysed and the lysates were electrophoresed on a 10% polyacrylamide gel, and then transferred to a nitrocellulose membrane, and probed with anti-phospho-ERK1/2 and anti-ERK1/2 (Cell Signaling) antibodies followed by incubation with horseradish peroxidase-conjugated secondary antibodies. […]
(A western blot detects proteins with antibodies after separation by electrophoresis.)

In assay [2] the target is T1, SHP2 (Homo sapiens, UniProt Q06124).
T1 sequence (Q06124 224-528): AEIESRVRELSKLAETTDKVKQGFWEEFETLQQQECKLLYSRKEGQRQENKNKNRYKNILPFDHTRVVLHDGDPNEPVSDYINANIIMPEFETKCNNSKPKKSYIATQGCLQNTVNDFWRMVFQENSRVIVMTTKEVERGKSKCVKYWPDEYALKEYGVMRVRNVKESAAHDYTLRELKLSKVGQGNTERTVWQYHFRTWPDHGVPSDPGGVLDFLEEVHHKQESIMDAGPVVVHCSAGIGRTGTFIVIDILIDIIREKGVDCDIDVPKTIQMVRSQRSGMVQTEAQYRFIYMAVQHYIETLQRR
The assay is described as follows: SHP2 inhibition, pNPP substrate. Format: biochemical.

The target in a further assay is T2, PTPH1 (Homo sapiens, UniProt P26045).
T2 sequence (P26045 1-913): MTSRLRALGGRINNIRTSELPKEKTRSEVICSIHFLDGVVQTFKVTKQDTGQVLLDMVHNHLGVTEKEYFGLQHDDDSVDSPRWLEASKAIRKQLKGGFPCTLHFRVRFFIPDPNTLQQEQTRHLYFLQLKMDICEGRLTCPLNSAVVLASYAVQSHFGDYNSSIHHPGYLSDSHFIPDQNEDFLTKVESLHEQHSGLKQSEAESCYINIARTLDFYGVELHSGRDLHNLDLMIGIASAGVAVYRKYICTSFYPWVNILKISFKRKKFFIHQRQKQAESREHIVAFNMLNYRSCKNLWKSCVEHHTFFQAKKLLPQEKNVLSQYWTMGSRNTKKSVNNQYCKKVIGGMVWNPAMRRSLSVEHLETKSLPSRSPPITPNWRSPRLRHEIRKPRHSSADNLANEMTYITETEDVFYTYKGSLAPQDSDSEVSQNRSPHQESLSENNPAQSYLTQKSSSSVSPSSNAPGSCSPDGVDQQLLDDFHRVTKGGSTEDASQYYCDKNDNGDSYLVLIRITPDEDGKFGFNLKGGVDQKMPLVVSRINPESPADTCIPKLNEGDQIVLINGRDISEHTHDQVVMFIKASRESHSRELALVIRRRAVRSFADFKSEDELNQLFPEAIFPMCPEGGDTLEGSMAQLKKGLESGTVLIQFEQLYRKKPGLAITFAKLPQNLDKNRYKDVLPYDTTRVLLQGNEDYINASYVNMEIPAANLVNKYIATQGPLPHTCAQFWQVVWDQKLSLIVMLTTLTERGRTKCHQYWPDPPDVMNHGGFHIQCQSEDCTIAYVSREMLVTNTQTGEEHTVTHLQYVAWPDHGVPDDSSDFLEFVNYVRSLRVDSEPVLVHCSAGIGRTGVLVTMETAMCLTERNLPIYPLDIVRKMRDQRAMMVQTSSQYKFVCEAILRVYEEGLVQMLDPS
The assay is described as follows: PTPH1 inhibition, pNPP substrate. The conditions noted are these: pH 7. It is filed as biochemical.

The target of the next assay is PEST (Homo sapiens, UniProt Q05209). Description: PEST inhibition, pNPP substrate. The conditions noted are these: pH 7. Format: biochemical.
In another assay the target is FAP1 (Homo sapiens, UniProt Q12923). Description: FAP1 inhibition, pNPP substrate. It is filed as biochemical. The conditions noted are these: pH 7.
Sequence of FAP1 (Q12923 whole entry): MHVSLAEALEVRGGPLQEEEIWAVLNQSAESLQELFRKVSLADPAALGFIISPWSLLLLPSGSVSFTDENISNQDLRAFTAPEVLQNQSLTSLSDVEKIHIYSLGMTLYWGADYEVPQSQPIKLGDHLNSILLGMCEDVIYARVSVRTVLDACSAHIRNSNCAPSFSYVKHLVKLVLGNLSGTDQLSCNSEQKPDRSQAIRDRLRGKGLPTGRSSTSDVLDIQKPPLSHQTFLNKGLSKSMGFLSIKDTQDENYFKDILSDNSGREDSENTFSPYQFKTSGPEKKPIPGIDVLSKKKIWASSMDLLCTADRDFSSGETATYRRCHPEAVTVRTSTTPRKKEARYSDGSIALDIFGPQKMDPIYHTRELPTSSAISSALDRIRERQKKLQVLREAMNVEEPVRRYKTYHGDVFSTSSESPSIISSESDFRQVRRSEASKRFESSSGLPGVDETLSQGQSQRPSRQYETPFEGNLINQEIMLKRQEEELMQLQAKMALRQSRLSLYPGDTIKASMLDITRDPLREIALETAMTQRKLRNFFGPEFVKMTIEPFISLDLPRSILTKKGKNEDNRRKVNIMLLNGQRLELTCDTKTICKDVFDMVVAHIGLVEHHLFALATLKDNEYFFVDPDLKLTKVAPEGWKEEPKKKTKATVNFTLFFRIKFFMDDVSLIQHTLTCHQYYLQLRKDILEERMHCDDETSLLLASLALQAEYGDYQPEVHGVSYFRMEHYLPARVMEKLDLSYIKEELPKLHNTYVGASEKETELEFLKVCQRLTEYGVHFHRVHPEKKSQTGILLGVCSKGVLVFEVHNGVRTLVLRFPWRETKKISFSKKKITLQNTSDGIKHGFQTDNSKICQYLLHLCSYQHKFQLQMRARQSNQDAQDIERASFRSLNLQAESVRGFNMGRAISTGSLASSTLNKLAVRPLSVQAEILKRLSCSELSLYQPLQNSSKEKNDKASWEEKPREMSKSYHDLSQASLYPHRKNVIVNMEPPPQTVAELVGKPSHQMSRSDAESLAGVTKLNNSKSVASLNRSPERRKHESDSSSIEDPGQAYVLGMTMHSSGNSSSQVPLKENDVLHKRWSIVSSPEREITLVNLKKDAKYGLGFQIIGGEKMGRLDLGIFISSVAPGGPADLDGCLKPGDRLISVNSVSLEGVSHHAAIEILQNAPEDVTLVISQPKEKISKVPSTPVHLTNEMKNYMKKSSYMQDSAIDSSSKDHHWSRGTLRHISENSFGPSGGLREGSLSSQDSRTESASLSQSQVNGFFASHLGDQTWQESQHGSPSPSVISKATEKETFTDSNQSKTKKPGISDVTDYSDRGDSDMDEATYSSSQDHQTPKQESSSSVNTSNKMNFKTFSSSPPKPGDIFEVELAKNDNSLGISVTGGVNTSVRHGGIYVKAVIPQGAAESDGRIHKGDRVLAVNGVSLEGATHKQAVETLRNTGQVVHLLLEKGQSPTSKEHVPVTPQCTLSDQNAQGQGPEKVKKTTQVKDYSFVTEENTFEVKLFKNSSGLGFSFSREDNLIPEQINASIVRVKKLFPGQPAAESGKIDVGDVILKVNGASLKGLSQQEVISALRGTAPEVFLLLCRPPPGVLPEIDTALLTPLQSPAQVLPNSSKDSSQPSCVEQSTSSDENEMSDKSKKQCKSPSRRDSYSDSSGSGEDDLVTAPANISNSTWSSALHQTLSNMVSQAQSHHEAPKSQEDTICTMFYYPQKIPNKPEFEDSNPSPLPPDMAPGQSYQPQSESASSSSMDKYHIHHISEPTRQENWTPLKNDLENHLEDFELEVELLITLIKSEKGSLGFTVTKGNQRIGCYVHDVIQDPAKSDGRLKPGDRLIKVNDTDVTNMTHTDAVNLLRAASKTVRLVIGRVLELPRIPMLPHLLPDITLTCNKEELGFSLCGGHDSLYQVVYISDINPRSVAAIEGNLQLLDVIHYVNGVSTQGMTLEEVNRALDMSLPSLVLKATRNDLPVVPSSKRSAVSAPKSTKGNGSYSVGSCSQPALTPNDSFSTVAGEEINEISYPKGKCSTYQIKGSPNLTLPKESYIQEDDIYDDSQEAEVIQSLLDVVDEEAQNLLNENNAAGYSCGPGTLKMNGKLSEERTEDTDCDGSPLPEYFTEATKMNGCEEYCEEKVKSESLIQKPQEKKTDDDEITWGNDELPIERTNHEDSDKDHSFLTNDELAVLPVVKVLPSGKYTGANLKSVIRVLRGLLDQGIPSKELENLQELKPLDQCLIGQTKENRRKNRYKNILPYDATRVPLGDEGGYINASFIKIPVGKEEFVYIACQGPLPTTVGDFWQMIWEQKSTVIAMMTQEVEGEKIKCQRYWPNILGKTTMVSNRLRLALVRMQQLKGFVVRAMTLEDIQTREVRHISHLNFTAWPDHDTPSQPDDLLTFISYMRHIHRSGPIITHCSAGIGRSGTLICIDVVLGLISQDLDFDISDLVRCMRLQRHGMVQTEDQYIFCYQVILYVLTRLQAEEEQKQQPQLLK
The target of a further assay is TcPTP (Homo sapiens, UniProt P17706). Description: TcPTP inhibition, pNPP substrate. It is filed as biochemical. As to conditions: pH 7.
Sequence of TcPTP (P17706 whole entry): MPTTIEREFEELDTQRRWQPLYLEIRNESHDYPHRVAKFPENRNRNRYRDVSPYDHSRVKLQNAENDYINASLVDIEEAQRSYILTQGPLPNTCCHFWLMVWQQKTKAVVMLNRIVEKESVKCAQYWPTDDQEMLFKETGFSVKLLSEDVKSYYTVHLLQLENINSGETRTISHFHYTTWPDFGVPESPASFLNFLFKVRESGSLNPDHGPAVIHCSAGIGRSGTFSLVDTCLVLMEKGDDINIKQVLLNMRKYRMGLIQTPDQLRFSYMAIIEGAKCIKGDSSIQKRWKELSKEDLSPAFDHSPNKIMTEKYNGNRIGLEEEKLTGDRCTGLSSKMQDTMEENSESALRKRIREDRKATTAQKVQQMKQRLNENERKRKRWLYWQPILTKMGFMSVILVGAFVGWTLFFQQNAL
A further assay has as its target PTP1B (Homo sapiens, UniProt P18031). Description: PTP1B inhibition, pNPP substrate. It is filed as biochemical. As to conditions: pNPP at Km, pH 7.0, 25° C.
In the next assay the target is VHR (Homo sapiens, UniProt P51452). Description: VHR inhibition, pNPP substrate. As to conditions: pNPP at Km, pH 7.0, 25° C. Format: biochemical.
Sequence of VHR (P51452 whole entry): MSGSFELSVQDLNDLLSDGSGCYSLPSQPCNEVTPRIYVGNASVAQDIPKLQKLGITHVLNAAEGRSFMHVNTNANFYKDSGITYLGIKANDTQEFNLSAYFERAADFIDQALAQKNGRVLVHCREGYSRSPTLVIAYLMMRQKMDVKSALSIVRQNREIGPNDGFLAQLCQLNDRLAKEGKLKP
The target in a further assay is HePTP (Homo sapiens, UniProt P35236). Description: HePTP inhibition, pNPP substrate. As to conditions: pNPP at Km, pH 7.0, 25° C. It is filed as biochemical.
The next assay has as its target LYP (Homo sapiens, UniProt Q9Y2R2). Description: LYP inhibition, pNPP substrate. As to conditions: pNPP at Km, pH 7.0, 25° C. Format: biochemical.
The target in another assay is T3, Ssu72 (Homo sapiens, UniProt Q9NP77).
T3 construct: made in house
T3 sequence (Q9NP77 whole entry): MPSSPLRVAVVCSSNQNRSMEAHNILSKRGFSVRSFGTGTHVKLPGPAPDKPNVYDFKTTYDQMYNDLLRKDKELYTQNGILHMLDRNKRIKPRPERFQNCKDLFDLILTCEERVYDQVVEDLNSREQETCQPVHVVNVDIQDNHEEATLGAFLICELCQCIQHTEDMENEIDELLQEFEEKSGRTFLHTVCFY
The assay is described as follows: Ssu72 inhibition, pNPP substrate. It is filed as biochemical. As to conditions: pH 7.

The target of a further assay is mPTPA (Mycobacterium tuberculosis, UniProt P9WIA1). It is filed as biochemical.
Sequence of mPTPA (P9WIA1 whole entry, looked up): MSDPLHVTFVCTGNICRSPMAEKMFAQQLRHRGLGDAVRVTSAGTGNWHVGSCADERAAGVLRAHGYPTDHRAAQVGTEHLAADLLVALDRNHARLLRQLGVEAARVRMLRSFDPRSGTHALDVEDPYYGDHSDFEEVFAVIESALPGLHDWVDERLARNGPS
The target in the next assay is T4, Laforin (Homo sapiens, UniProt O95278).
T4 sequence (O95278 1-331): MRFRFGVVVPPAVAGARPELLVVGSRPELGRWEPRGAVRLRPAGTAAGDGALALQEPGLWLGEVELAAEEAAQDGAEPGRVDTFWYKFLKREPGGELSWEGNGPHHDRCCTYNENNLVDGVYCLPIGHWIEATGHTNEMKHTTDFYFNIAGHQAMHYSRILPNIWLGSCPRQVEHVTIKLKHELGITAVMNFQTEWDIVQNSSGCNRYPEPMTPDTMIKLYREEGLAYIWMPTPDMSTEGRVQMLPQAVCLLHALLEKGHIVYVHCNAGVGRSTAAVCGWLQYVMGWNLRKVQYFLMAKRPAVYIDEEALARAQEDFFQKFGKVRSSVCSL
Description: Laforin inhibition, pNPP substrate. Format: biochemical.

The target of another assay is mPTPB (Mycobacterium tuberculosis, UniProt I6WXK4). Description: biochemical.
Sequence of mPTPB (I6WXK4 whole entry): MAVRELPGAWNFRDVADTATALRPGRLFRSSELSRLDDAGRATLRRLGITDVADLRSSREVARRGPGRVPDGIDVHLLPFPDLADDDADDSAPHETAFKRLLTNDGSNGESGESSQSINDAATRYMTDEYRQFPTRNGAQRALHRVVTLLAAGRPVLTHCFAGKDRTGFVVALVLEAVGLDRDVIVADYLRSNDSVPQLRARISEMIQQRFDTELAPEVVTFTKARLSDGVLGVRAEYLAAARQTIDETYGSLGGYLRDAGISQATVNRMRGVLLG
A further assay deals with LMWPTP. Description: Insulin signaling in HepG2 cells. The conditions noted are these: pretreated 1 hour, 5 nM insulin 5 minutes. It is filed as cell-based, human. On the procedure: To assess the effects of L335N15 in insulin signaling pathway, HepG2 cells were pretreated with L335N15 for 1 hour and were subsequently stimulated with 5 nM insulin for 5 minutes. […] Consistent with IR activation, downstream Akt phosphorylation (Ser473) was increased. […] Accordingly, LMWPTP inhibitors such as L335N15 described herein can be used to develop agents for the treatment of type 2 diabetes and insulin resistance.

In assay [3] the target is SHP2 (Homo sapiens, UniProt Q06124). Description: Covalent adduct formation with SHP2, QTOF ESI-MS / LC-MS. The conditions noted are these: pH 7, cefsulodin 3 hours, PVS 10 minutes. Here is the method:
Characterization of cefsulodin-mediated SHP2 inhibition by Q-TOF ESI-MS, LC-MS, and HPLC. Agilent 6520 Accurate-Mass was used for the Q-TOF ESI-MS studies. Water and acetonitrile (both containing 0.1% formic acid) were used as eluent (80% water, flow 50 μL/min, run time 5 minutes). ESI positive mode was used with mass range from 300 to 1700, the gas temperature was 325° C., and vaporizer temperature was: […] The sample was adjusted to have a concentration at 0.1 mg/mL, the injection volume of each sample was 1 μL. Mass hunter software was used for protein deconvolution data analysis to calculate the molecular weight of the protein.
Agilent Technologies 6130 quadrupole LC-MS instrument was used for the LC-MS studies. A C18 reserved phase column (phenomenex, 50×4.6 mm) was used as stationary phase, water and methanol (both containing 0.1% formic acid) were used as mobile phase (gradient: 0-100% methanol, flow 0 8 ml/min, run time 15 minutes), and UV absorbance at the fixed wavelength of 254 nm and positive and negative ESI-MS data were recorded. The sample was adjusted to have a concentration at 0.1 mg/mL, and the injection volume of each sample was 0.2 μL. The retention time and corresponding ESI-MS data were used as identity of molecules.

Sequence of PTP1B (P18031 whole entry): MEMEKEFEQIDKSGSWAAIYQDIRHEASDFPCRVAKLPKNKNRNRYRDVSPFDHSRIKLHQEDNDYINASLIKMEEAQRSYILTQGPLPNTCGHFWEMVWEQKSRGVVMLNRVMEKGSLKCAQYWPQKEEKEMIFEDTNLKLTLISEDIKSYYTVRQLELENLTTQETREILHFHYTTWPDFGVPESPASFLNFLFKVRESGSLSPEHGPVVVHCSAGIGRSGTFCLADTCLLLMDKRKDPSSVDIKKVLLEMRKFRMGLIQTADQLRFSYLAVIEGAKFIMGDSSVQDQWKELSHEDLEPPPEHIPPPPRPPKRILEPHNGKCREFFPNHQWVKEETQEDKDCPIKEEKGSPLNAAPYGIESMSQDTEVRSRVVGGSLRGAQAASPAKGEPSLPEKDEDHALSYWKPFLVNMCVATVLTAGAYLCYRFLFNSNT
Sequence of LYP (Q9Y2R2 whole entry): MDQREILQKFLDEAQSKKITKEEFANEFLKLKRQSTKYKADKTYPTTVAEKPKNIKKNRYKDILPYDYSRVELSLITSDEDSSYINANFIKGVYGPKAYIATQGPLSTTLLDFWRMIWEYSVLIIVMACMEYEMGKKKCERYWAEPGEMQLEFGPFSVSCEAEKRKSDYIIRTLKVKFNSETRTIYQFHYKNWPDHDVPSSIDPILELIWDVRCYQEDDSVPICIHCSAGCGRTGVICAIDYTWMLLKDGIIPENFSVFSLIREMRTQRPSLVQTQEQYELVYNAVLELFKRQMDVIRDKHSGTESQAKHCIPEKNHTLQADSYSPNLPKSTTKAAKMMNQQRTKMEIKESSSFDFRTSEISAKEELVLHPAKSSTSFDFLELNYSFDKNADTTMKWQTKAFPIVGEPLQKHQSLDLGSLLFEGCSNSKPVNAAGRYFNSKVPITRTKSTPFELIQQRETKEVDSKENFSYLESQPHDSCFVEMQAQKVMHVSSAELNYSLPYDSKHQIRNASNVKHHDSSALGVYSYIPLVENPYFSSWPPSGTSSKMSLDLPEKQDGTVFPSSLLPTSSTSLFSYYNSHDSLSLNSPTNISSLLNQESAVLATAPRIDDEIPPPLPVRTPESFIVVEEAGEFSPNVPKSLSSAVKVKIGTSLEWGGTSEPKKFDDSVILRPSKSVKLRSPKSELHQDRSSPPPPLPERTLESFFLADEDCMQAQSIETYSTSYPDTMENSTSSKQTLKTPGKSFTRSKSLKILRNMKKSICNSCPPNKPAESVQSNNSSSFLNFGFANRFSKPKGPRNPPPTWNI

Regarding `Cc1c(Br)cc(NC(=O)CS(=O)(=O)O)cc1Br`, in the assay on Mtb-infected macrophages, the “anti-Mtb activity in Mtb-infected macrophages” value is given as “markedly decrease bacterial load”. Further, in the assay on M. tuberculosis H37Rv, the “activity in standard MIC assays” value is listed as “devoid of activity”.
In the case of `O=C(Nc1ccccc1)C(=O)Nc1ccc(NC(=O)C(c2ccccc2)S(=O)(=O)O)cc1` (stereo not drawn) [Compound 7, 2-oxo-2-((4-(2-oxo-2-(phenylamino)acetamido)phenyl)amino)-1-phenylethanesulfonic acid], the “EGF-mediated ERK1/2 phosphorylation in H1975 cells” value in assay [1] is on record as “no appreciable effect; also recorded: failed to block EGF-mediated ERK1/2 phosphorylation”. In addition, the “inhibitory activity against SHP2 at 50 μM” value on SHP2 [2] (50 μM) is listed as “no inhibition”.
Turning to `O=C(O)c1cc2c(C#Cc3cccc(C(F)(F)F)c3)c(-c3ccccc3)oc2cc1O` [Compound L01Z08], the “anti-Mtb activity in Mtb-infected macrophages” value in the assay on Mtb-infected macrophages is given as “potent anti-Mtb activity”.
As to `O=C(Nc1ccc2nc(C(F)(F)F)[nH]c2c1)C(c1ccccc1)S(=O)(=O)O` (stereo not drawn) [Compound L319M54], at PTPH1, the IC50 was greater than 200 µM.
Turning to `O=C(Nc1ccc(-n2ccnc2)cc1)C(c1ccccc1)S(=O)(=O)O` (stereo not drawn) [Compound L319M63], the IC50 on PEST was greater than 100 µM; against FAP1, greater than 100 µM; against SHP2 [2] (pNPP at Km, pH 7.0, 25° C.) it was greater than 100 µM; at TcPTP, greater than 100 µM; at PTP1B it was greater than 100 µM; on VHR, greater than 100 µM. For the same compound, the IC50 against HePTP, against LYP and at Ssu72 was greater than 100 µM each time.
Regarding `O=C(Nc1ccc(N2CCOCC2)cc1)C(c1ccccc1)S(=O)(=O)O` (stereo not drawn) [Compound L319M68], at mPTPA, the “mode of mPTPA inhibition” value is given as “competitive inhibitor”. On PTPH1, this compound showed an IC50 greater than 200 µM.
For the compound `O=C(Nc1nnc(-c2ccccc2)s1)C(c1ccccc1)S(=O)(=O)O` (stereo not drawn) [Compound L319M73-2], the “specificity for Laforin over LMPTP” value at Laforin (ratio of IC50) came out at 8 fold.
In turn, `O=C(Nc1cnc2ccccc2c1)C(c1ccccc1)S(=O)(=O)O` (stereo not drawn) [Compound L319M88] registered an IC50 on PTPH1 greater than 200 µM.
In the case of `O=C(Nc1nc2ccc(O[N+](=O)[O-])cc2s1)C(c1ccccc1)S(=O)(=O)O` (stereo not drawn) [Compound L319N15-07], the “inhibition against Laforin at 100 μM” value at Laforin is on record as “no detectable inhibition”.
In the case of `O=C(Nc1nc2ccccc2s1)C(c1ccccc1)S(=O)(=O)O` (stereo not drawn) [Compound L319N15], at PTPH1, the IC50 is greater than 200 µM.
For the compound `O=C(C(c1ccccc1)S(=O)(=O)O)N1CCC(c2ccc(Cl)c(Cl)c2)CC1` (stereo not drawn) [Compound L319N47], on mPTPB, the “increase in potency against mPTPB compared to SPAA” value amounted to 2000 fold.
Turning to `O=C(CS(=O)(=O)O)Nc1nc2ccc([N+](=O)[O-])cc2s1` [Compound L335N15-07], the “inhibition against Laforin at 100 μM” value against Laforin was “no detectable inhibition”.
`O=C(CS(=O)(=O)O)Nc1nc2ccccc2s1` [Compound L335N15]: the “Akt phosphorylation (Ser473) in HepG2 cells” value with LMWPTP is recorded as “increased”. In addition, the “IR Tyr1162/1163 phosphorylation in HepG2 cells” value in the assay with LMWPTP (relative to DMSO) is recorded as “enhanced IR Tyr1162/1163 phosphorylation in a dose-dependent fashion”.
For the compound `NC(=O)C(c1ccccc1)S(=O)(=O)O` (stereo not drawn) [SPAA, α-sulfophenylacetic amide, reference compound], half-maximal inhibition against mPTPB (IC50) required 200 µM.
Turning to `C=CS(=O)(=O)c1ccccc1` [phenyl vinyl sulfone], the “covalent adduct formation with SHP2” value on SHP2 [3] is “formed a covalent adduct”.

The values above are taken from patent US10532977B2, “Small molecule inhibitors of protein tyrosine phosphatases and uses thereof” (Indiana University Research and Technology Corporation, priority 2015, dated 2020).
